Patent US5741516A, “Sphingosomes for enhanced drug delivery” (priority 1995, dated 1998)
Like-named read-outs stand apart in the source and are kept apart here.

Experiments:
A431 tumors = experiment: Antitumor efficacy against A431 tumors; assay type: in vivo, human A431 xenograft, SCID mice; settings: vincristine 2.0 mg/kg i.v.
Method: Tumor loading and antitumor efficacy properties of DSPC/Chol and SM/Chol liposomal formulations of vincristine were determined in mice bearing solid human A431 squamous cell xenograft tumors. These experiments were undertaken to ensure that the positive results observed in the murine ascitic P388 tumor model were representative of other tumor types. SCID mice bearing 100-200 mg solid human A431 tumors were injected i.v. with free vincristine or with liposomes of either DSPC/Chol or SM/Chol containing vincristine. Vincristine encapsulated DSPC/Chol and SM/Chol liposomes were prepared as in Example II. […] As observed in BDF1 mice bearing P388 tumors, the amount of vincristine remaining in the circulation in SM/Chol liposomes at 24 hours after injection was approximately 3-fold greater than for vincristine encapsulated in DSPC/Chol liposomes (FIG. 11A).
The antitumor efficacy of free and liposomal vincristine against A431 was closely correlated with vincristine accumulation at the tumor site (FIG. 12). […] This therapy was further enhanced by a single treatment of vincristine encapsulated in SM/Chol liposomes. […] Of the five mice (total of 10 tumors) treated with SM/Chol liposomal vincristine, 1 animal was terminated early due to tumor ulceration, not due to tumor growth.

[1] = Vincristine uptake into liposomes by pH gradient; assay type: physicochemical; settings: drug/lipid 0.1/1 (wt/wt), 10 minutes at 60° C
Method: Uptake of vincristine into large unilamellar liposomes was achieved using a pH gradient-dependent procedure described by Mayer et al., Cancer Chemother. Pharmacol. 33:17-24 (1993), incorporated herein by reference. Briefly, a solution of vincristine sulfate (Oncovin®, Eli Lilly, Indianapolis, Ind.) was added to liposomes at a drug/lipid ratio of 0.1/1 (wt/wt) and equilibrated at 60° C. for 5 to 10 minutes. Vincristine uptake in response to a transmembrane pH gradient was initiated by the addition of 0.5M Na2 HPO4 to bring the external pH to 7.2-7.6.

[2] = for animals that died after chemotherapy (in words): LD50 dose, within a few days; for Survival (%): 14 days
Excerpt: Female C57BL/6 mice (average weight 15.03 g), were used and housed under standard conditions. The animals received free access to both food and water throughout the experiment after a one week acclimatization period prior to experimental manipulation. The mice were 6 weeks old on the beginning of the experiment and placed randomly in 12 groups of 5 mice per group.

[3] = In vitro oral stability in gastric contents; assay type: physicochemical; settings: simulated gastric contents; hydrochloric acid (pH2) with pepsin; up to 72 hours
Method: To establish an advantage for the oral route of administration, swainsonine was incubated in vitro in simulated gastric contents for various periods of time (1, 2, 4, 24, 48 and 72 hrs.) and the "oral stability" of swainsonine was determined. Swainsonine was also incubated in hydrochloric acid (pH2) containing the main gastric digestive enzyme, pepsin.

bone marrow [4] = experiment: Bone marrow cellularity after chemotherapy; assay type: in vivo, C57BL/6 mice; settings: 14 days after chemotherapy; orally or i.p., vs GM-CSF i.p. 10 days
Method: On the 15th day after the initial chemotherapeutic dose, 4 mice from each group of the immunomodulation study (Example 6) were randomly sacrificed and up to 1 ml of blood was obtained by cardiac puncture. Circulating peripheral WBCs were counted, blood smears (for neutrophil counts) were made and plasma samples were collected and tested for cytokine production (IL-1, IL-2, TNF). Blood cytokine levels (TNF, IL-1, and IL-2) were assayed by commercially available assay kits. The spleen, thymus and bone marrow were removed and single cell suspensions were prepared. The cellularity of these lymphoid organs was assessed by trypan blue exclusion test.

IL-2 = IL-2 production by mitogen-stimulated splenocytes; assay type: in vivo, C57BL/6 mice; settings: vs chemotherapy-treated and PBS controls, FIG. 10B
Method: (§1) Cells from spleen, thymus and bone marrow were tested for their ability to respond to stimulation from different mitogens: ConA (1, 2.5 and 5 μg/ml) (Sigma), phytohemagglutinin (PHA) (1, and 2.5 μg/ml) (Sigma) and LPS (2.5 and 5 μg/ml) (Difco). After 72 hours of stimulation the proliferative response was measured using CellTiter 96 (Promega). Simultaneously, mitogen stimulated splenocytes were set up for cytokine production after ConA (2.5 μg/ml) and lipopolysaccharide (LPS) (2.5 μg/ml) stimulation. The supernatants were collected after 24 hr. and 48 hr. and tested for Tumor Necrosis Factor-α (TNF-α) and Interleukin-2 (IL-2) production using the direct ELISA method. Supernatants from unstimulated cells served as controls. Results are expressed as pg/ml of TNF-α (sensitivity of the assay is <25 pg/ml) or IL-2 (sensitivity of the assay is <3 pg/ml).

[5] = tested on: colon cancer and melanoma cancers; settings: combined with interferon, in vivo; cited from earlier work
tumor cells = settings: in vitro; cited from earlier work
[6] = tested on: IL-1, IL-2, TNF, GM-CSF and interferons; settings: cited from earlier work
TNF-α = experiment: TNF production by mitogen-stimulated splenocytes; assay type: in vivo, C57BL/6 mice; settings: vs chemotherapy-treated and PBS controls, FIG. 10A
Method: as §1

bone marrow [7] = settings: cited from earlier work
[8] = Bioavailability of liposomal swainsonine; assay type: in vivo, Balb/c mice; settings: p.o. vs i.v.
Method: Female Balb/c mice, 5-6 weeks of age, were housed under standard conditions. […] Swainsonine (Toronto Res. Chem.) was radiolabeled with tritium. Tritiated swainsonine was administered as a lipid-based formulation (L-Im) and as an aqueous formulation containing the free drug (F-Im). Tritiated swainsonine was loaded into sphingomyelin/cholesterol (Avanti Polar Labs) sphingosomes using a citrate buffer pH 2 gradient at a drug-to-lipid ratio of 0.2:1 (mol:mol) and with an efficiency of loading of 80%. Two hundred microliters of the lipid and aqueous swainsonine formulations were given orally by gavage (p.o.), intraperitoneally (i.p.), or intravenously (i.v.). Fifty microliter blood samples were collected by retroorbital bleeds at 1, 3, 6, and 24 hours after administration. The blood samples were bleached and then counted in a scintillation counter. Results were expressed as the percentage of the administered dose in the blood at various time-points after administration.

[9] = in vivo; cited from earlier work

Compound: CC[C@]1(O)C[C@H]2CN(CCc3c([nH]c4ccccc34)[C@@](C(=O)OC)(c3cc4c(cc3OC)N(C=O)[C@H]3[C@@](O)(C(=O)OC)[C@H](OC(C)=O)[C@]5(CC)C=CCN6CC[C@]43[C@@H]65)C2)C1 [vincristine]
- delay in tumor growth / change in tumor size (A431 tumors): brief delay in tumor growth
- time to 100% increase in tumor weight (A431 tumors): 6 to 8 days
- time to required termination (A431 tumors): 10 to 12 days
- trapping efficiency [1]: approximately 95%

Compound: CN(Cc1cnc2nc(N)nc(N)c2n1)c1ccc(C(=O)N[C@@H](CCC(=O)O)C(=O)O)cc1 [MTX, methotrexate]
- animals that died after chemotherapy (in words) [2]: Half
- Survival (%) ([2]; i.p.): 40%

Compound: O[C@H]1[C@H]2[C@H](O)CCCN2C[C@H]1O [swainsonine]
- in vitro oral stability [3]: stable under these harsh conditions for up to 72 hours
- bone marrow cellularity (bone marrow [4]): performed as effectively as GM-CSF
- IL-2 level in stimulated splenocytes (IL-2): significantly elevated
- direct anti-tumor activity [5]: direct anti-tumor activity against colon cancer and melanoma cancers
- B- and T-cell immunity, natural killer T-cell and macrophage-induced destruction of tumor cells (tumor cells): induces B- and T-cell immunity, natural killer T-cell and macrophage-induced destruction of tumor cells in vitro
- production of multiple cytokines [6]: stimulates the production of multiple cytokines
- TNF level in stimulated splenocytes (TNF-α): significantly elevated
- bone marrow proliferation (bone marrow [7]): has the capacity to stimulate bone marrow proliferation
- oral bioavailability compared to swainsonine administered intravenously [8]: 60-65%
- Survival (%) ([2]; i.p.): 100%
- Survival (%) ([2]; p.o.): 100%
- survival beyond 2 weeks after chemotherapy (in words) ([2]; swainsonine intravenously or i.p. / GM-CSF i.p., 10 days, after Mtx or Dox): all animals
- survival after cytotoxic treatment (in words) ([2]; swainsonine p.o. 10 days after Mtx or Dox): all but one animal

Compound: sphingomyelin
- circulation lifetime of liposomes [9]: increase in the circulation lifetime of liposomes

Compound: COc1cccc2c1C(=O)c1c(O)c3c(c(O)c1C2=O)C[C@@](O)(C(=O)CO)C[C@@H]3O[C@H]1C[C@H](N)[C@H](O)[C@H](C)O1 [DOX, Doxorubicin]
- animals that died after chemotherapy (in words) [2]: half
- Survival (%) ([2]; i.p.): 60%
